According to PMC6230509 (Neuropharmacology, 2018):

Columns and labels:
α1D = target: T1, α1D (Homo sapiens, UniProt P25100); assay: NIMH PDSP radioligand competition binding, α1D
T1 sequence (P25100 1-572): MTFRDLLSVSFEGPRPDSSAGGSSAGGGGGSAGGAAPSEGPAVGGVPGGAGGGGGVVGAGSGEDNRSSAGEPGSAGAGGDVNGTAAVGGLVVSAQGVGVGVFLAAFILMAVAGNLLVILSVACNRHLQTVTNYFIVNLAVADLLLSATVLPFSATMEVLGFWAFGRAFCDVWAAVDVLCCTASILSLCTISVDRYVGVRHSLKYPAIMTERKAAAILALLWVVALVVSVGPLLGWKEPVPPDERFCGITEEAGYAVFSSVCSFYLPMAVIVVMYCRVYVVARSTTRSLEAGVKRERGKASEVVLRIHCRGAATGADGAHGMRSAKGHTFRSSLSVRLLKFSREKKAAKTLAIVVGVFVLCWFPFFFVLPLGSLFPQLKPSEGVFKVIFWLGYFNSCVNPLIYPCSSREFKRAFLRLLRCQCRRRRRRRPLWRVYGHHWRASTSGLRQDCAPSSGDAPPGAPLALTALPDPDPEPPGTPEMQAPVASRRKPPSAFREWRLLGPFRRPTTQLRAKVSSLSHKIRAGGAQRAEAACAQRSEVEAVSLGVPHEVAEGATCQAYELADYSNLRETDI

[1] = target: peripheral benzodiazepine receptor (PBR) (Rattus norvegicus, UniProt P16257); assay: NIMH PDSP radioligand competition binding, PBR
5-HT2C = target: T2, 5-HT2C (Homo sapiens, UniProt P28335); assay: NIMH PDSP radioligand competition binding, 5-HT2C
T2 sequence (P28335 33-458): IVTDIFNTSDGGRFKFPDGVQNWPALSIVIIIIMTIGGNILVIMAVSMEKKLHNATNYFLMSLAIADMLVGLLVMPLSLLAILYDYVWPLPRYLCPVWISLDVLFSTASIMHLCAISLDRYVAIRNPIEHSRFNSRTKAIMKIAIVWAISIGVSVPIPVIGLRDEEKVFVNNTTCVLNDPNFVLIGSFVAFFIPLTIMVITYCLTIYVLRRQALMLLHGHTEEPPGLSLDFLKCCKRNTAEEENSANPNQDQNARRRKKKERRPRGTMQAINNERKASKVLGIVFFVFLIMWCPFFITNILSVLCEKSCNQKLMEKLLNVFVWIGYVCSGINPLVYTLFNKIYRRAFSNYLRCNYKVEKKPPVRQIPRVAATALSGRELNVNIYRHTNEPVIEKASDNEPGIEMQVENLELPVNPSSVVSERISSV

κ-opioid receptor (KOR) = κ-opioid receptor (KOR) (Homo sapiens, UniProt P41145); assay: NIMH PDSP radioligand competition binding, KOR
D4 = target: T3, D4 (Homo sapiens, UniProt P21917); assay: NIMH PDSP radioligand competition binding, D4
T3 sequence (P21917 1-419): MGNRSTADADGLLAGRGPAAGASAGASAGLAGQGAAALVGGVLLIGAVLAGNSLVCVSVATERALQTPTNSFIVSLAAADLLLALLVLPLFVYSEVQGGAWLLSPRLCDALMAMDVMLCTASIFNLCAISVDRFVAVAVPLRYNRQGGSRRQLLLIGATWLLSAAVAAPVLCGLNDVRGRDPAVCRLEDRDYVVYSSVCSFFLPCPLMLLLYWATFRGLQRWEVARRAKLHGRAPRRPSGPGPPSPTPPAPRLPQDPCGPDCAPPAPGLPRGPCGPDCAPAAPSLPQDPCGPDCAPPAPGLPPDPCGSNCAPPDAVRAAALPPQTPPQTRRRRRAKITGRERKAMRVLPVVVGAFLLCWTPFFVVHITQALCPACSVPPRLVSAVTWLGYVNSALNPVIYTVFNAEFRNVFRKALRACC

5-HT5A = 5-HT5A (Homo sapiens, UniProt P47898); assay: NIMH PDSP radioligand competition binding, 5-HT5A
D5 = D5 (Homo sapiens, UniProt P21918); assay: NIMH PDSP radioligand competition binding, D5
D3 = D3 (Homo sapiens, UniProt P35462); assay: NIMH PDSP radioligand competition binding, D3
D1 = D1 (Homo sapiens, UniProt P21728); assay: NIMH PDSP radioligand competition binding, D1
σ2 = target: T4, σ2 (Rattus norvegicus, UniProt Q5U3Y7); assay: NIMH PDSP radioligand competition binding, σ2
T4 sequence (Q5U3Y7 1-176): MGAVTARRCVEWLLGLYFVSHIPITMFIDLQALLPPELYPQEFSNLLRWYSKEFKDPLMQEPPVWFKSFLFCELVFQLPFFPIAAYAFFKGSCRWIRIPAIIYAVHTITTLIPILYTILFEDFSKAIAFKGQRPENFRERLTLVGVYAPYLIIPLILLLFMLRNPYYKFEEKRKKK

δ-opioid receptor (DOR) = δ-opioid receptor (DOR) (Homo sapiens, UniProt P41143); assay: NIMH PDSP radioligand competition binding, DOR
μ-opioid receptor (MOR) = μ-opioid receptor (MOR) (Homo sapiens, UniProt P35372); assay: NIMH PDSP radioligand competition binding, MOR
α2A = target: T5, α2A (Homo sapiens, UniProt P08913); assay: NIMH PDSP radioligand competition binding, α2A
T5 sequence (P08913 1-465): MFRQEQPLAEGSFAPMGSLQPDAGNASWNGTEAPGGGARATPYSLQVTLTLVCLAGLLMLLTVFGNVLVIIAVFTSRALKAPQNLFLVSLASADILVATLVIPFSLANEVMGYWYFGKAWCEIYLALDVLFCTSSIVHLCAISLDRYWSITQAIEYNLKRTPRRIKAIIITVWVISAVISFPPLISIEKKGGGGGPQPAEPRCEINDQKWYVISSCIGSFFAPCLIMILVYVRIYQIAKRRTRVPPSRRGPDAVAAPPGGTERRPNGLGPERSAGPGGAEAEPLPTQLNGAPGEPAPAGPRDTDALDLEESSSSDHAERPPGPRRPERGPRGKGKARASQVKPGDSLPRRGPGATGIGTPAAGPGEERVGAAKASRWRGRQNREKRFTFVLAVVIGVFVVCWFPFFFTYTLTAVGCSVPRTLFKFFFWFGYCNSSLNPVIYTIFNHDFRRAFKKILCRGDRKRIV

[2] = Binding Affinity (Ki, nM), PBR, [3H]PK11195, rat kidney, natively expressed
[3] = Binding Affinity (Ki, nM), [3H]N-methylspiperone, cloned human receptor
[4] = Binding Affinity (Ki, nM), [3H]SCH23390, cloned human receptor
[5] = Binding Affinity (Ki, nM), DOR, [3H]DADLE, cloned human receptor

| SMILES | Ki (α1D) | Ki [1, 2] | Ki (5-HT2C) | Ki (κ-opioid receptor (KOR)) | Ki (D4; [3]) | Ki (5-HT5A) | Ki (D5; [4]) | Ki (D3) | Ki (D1; [4]) | Ki (σ2) | Ki (δ-opioid receptor (DOR); [5]) | Ki (μ-opioid receptor (MOR)) | Ki (α2A) | Ki ([1]; Ki value, peripheral benzodiazepine receptors, bound stated) | Ki (D4; Ki value, bound stated) | Ki (D5; Ki value, bound stated) | Ki (D1; Ki value, bound stated) | Ki (δ-opioid receptor (DOR); Ki value, δ-opioid, bound stated) |
| --- | --- | --- | --- | --- | --- | --- | --- | --- | --- | --- | --- | --- | --- | --- | --- | --- | --- | --- |
| C=CCN(CC=C)CCc1c(C)[nH]c2ccc(F)cc12 [5-F-2-Me-DALT, 5-fluoro-2-methyl-N,N-diallyltryptamine] | > 10 µM | > 10000 nM | 0.541 µM | 0.58 µM | > 10000 nM | 1.92 µM | > 10000 nM | 0.414 µM | > 10000 nM | 0.396 µM | > 10000 nM | > 10 µM | 0.053 µM | – | – | – | – | – |
| C=CCN(CC=C)CCc1c[nH]c2c(CC)cccc12 [7-Et-DALT, 7-ethyl-N,N-diallyltryptamine] | > 10 µM | > 10000 nM | 0.443 µM | 0.58 µM | > 10000 nM | > 10 µM | > 10000 nM | 1.08 µM | > 10000 nM | 0.136 µM | > 10000 nM | 2.67 µM | 0.141 µM | – | – | – | – | – |
| C=CCN(CC=C)CCc1c(C)[nH]c2ccc(OC)cc12 [5-MeO-2-Me-DALT, 5-methoxy-2-methyl-N,N-diallyltryptamine] | 2.41 µM | > 10000 nM | > 10 µM | 0.391 µM | > 10000 nM | 1.82 µM | > 10000 nM | 2.4 µM | > 10000 nM | 1.24 µM | > 10000 nM | > 10 µM | 0.189 µM | – | – | – | – | – |
| C=CCN(CC=C)CCc1c[nH]c2cccc(O)c12 [4-HO-DALT, 4-hydroxy-N,N-diallyltryptamine] | > 10 µM | > 10000 nM | 2.11 µM | > 10 µM | > 10000 nM | > 10 µM | > 10000 nM | 1.57 µM | > 10000 nM | > 10 µM | > 10000 nM | > 10 µM | 1.21 µM | – | – | – | – | – |
| C=CCN(CC=C)CCc1c[nH]c2cccc(OC(C)=O)c12 [4-AcO-DALT, 4-acetoxy-N,N-diallyltryptamine] | > 10 µM | > 10000 nM | 1.52 µM | 5.23 µM | > 10000 nM | 5.84 µM | > 10000 nM | > 10 µM | > 10000 nM | > 10 µM | > 10000 nM | > 10 µM | 0.342 µM | – | – | – | – | – |
| C=CCN(CC=C)CCc1c(-c2ccccc2)[nH]c2ccccc12 [2-Ph-DALT, 2-phenyl-N,N-diallyltryptamine] | 0.243 µM | 1930 nM | 0.278 µM | 0.589 µM | 1000 nM | 1.67 µM | 2000 nM | 0.342 µM | 2790 nM | 0.717 µM | 6790 nM | > 10 µM | 0.085 µM | < 10000 nM | < 10000 nM | < 10000 nM | < 10000 nM | < 10000 nM |
